Measured values as given in patent publication US20150196033A1, “PESTICIDAL COMPOSITIONS AND PROCESSES RELATED THERETO” (priority 2012, published 2015).
Where two headings read alike, the source gives them in different places.

How the values were obtained:
[1] = tested on: Beet Armyworm (BAW) (Spodoptera exigua); assay: Bioassay on Beet Armyworm (BAW), 128-well diet tray assay; assay type: in vivo; conditions: Spodoptera exigua, 168 h; for mortality at 50 µg/cm2: read-out: Rating BAW (% Control (or Mortality))
Experimental: (§1) Certain molecules disclosed in this document were tested against BAW and CEW using procedures described in the following examples. In the reporting of the results, the “BAW & CEW Rating Table” was used (See Table Section).
Bioassays on BAW (Spodoptera exigua)
(§2) Trays were covered with a clear self-adhesive cover and held at 25° C., 14:10 light-dark for five to seven days. Percent mortality was recorded for the larvae in each well; activity in the eight wells was then averaged. The results are indicated in the table entitled “Table ABC: Biological Results” (See Table Section).

[2] = tested on: Corn Earworm (CEW) (Helicoverpa zea); assay: Bioassay on Corn Earworm (CEW), 128-well diet tray assay; assay type: in vivo; conditions: Helicoverpa zea, 168 h; for mortality at 50 µg/cm2: read-out: Rating CEW (% Control (or Mortality)); for mortality at 0.5 µg/cm2: 0.5 μg/cm2 on artificial diet, read-out: Rating CEW (% Control (or Mortality)), *Tested at 0.5 μg/cm2
Experimental: as §1
Bioassays on CEW (Helicoverpa zea)
as §2

[3] = 50 μg/cm2 on artificial diet, second instar larvae, five to seven days
[4] = second instar larvae, five to seven days

SMILES | mortality at 50 µg/cm2 [1, 3] | mortality at 50 µg/cm2 [2, 3] | also measured
CC(C)C(=O)OCS/C(=N\C(=O)Nc1ccc(-c2ncn(-c3ccc(OC(F)(F)F)cc3)n2)cc1)Nc1ccccc1C(C)C [Molecule A5, (Z)-((N-(2-Isopropylphenyl)-N′-((4-(1-(4-(trifluoromethoxy)phenyl)-1H-1,2,4-triazol-3-yl)phenyl)carbamoyl)carbamimidoyl)thio)methyl isobutyrate] | 50 to 100% | 50 to 100% | 
Cc1cccc(C)c1N/C(=N/C(=O)Nc1ccc(-c2ncn(-c3ccc(C(F)(F)F)cc3)n2)cc1)SCOC(=O)CNC(=O)OCc1ccccc1 [Molecule A8, (Z)-((N-(2,6-Dimethylphenyl)-N′-((4-(1-(4-(trifluoromethyl)phenyl)-1H-1,2,4-triazol-3-yl)phenyl)carbamoyl)carbamimidoyl)thio)methyl 2-(((benzyloxy)carbonyl)amino)acetate] |  |  | mortality at 50 µg/cm2 [1]: 50 to 100%; mortality at 50 µg/cm2 [2]: 50 to 100%
COc1ccc(N/C(=N/C(=O)Nc2ccc(-c3ncn(-c4ccc(OC(F)(F)F)cc4)n3)cc2)SCS[C@@H]2O[C@@H](C)[C@H](OC)[C@@H](OC)[C@H]2OC)c(C)c1 [Molecule A10, (Z)-(((2S,3R,4R,5S,6S)-3,4,5-Trimethoxy-6-methyltetrahydro-2H-pyran-2-yl)thio)methyl N-(4-methoxy-2-methylphenyl)-N′-((4-(1-(4-(trifluoromethoxy)phenyl)-1H-1,2,4-triazol-3-yl)phenyl)carbamoyl) carbamimidothioate] | 50 to 100% | 50 to 100% | 
CC(C)c1ccccc1NC(=O)NC(=O)Nc1ccc(-c2ncn(-c3ccc(OC(F)(F)F)cc3)n2)cc1 [Molecule A13, 1-(2-isopropylphenyl)-3-[[4-[1-[4-(trifluoromethoxy)phenyl]-1,2,4-triazol-3-yl]phenyl]carbamoyl]urea] | 50 to 100% | 50 to 100% | 
CC(C)c1ccccc1N1C(=O)CS/C1=N\C(=O)Nc1ccc(-c2ncn(-c3ccc(OC(F)(F)F)cc3)n2)cc1 [Molecule A19, (Z)-1-(3-(2-isopropylphenyl)-4-oxothiazolidin-2-ylidene)-3-(4-(1-(4-(trifluoromethoxy)phenyl)-1H-1,2,4-triazol-3-yl)phenyl)urea] | 50 to 100% | 50 to 100% | 
CC(C)c1ccccc1N/C(S)=C/C(=O)Nc1ccc(-c2ncn(-c3ccc(OC(F)(F)F)cc3)n2)cc1 [Molecule A21, 3-((2-isopropylphenyl)amino)-3-thioxo-N-(4-(1-(4-(trifluoromethoxy)phenyl)-1H-1,2,4-triazol-3-yl)phenyl)propanamide] | 50 to 100% | 50 to 100% | 
Cc1cccc(C)c1N/C(S)=C/C(=O)Nc1ccc(-c2ncn(-c3ccc(OC(F)(F)F)cc3)n2)cc1 [Molecule A23, 3-((2,6-dimethylphenyl)amino)-3-thioxo-N-(4-(1-(4-(trifluoromethoxy)phenyl)-1H-1,2,4-triazol-3-yl)phenyl)propanamide] | 50 to 100% | 50 to 100% | 
CC(C)c1ccccc1N1C(=O)CS/C1=C\C(=O)Nc1ccc(-c2ncn(-c3ccc(OC(F)(F)F)cc3)n2)cc1 [Molecule A24, (Z)-2-(3-(2-isopropylphenyl)-4-oxothiazolidin-2-ylidene)-N-(4-(1-(4-(trifluoromethoxy)phenyl)-1H-1,2,4-triazol-3-yl)phenyl)acetamide] | 50 to 100% | 50 to 100% | 
CC(C)c1ccccc1N/C(S)=C(\C#N)C(=O)Nc1ccc(-c2ncn(-c3ccc(OC(F)(F)F)cc3)n2)cc1 [Molecule A25, (Z)-2-cyano-3-((2-isopropylphenyl)amino)-3-mercapto-N-(4-(1-(4-(trifluoromethoxy)phenyl)-1H-1,2,4-triazol-3-yl)phenyl)acrylamide] | 0% | 0 to 50% | 
COc1ccc(N/C(S)=C(\C#N)C(=O)Nc2ccc(-c3ncn(-c4ccc(OC(F)(F)F)cc4)n3)cc2)c(C)c1 [Molecule A26, (Z)-2-Cyano-3-mercapto-3-((4-methoxy-2-methylphenyl)amino)-N-(4-(1-(4-(trifluoromethoxy)phenyl)-1H-1,2,4-triazol-3-yl)phenyl)acrylamide] | 0% | 0% | 
N#C/C(C(=O)Nc1ccc(-c2ncn(-c3ccc(OC(F)(F)F)cc3)n2)cc1)=C(/S)Nc1ccccc1-c1ccccc1 [Molecule A27, (Z)-3-([1,1′-Biphenyl]-2-ylamino)-2-cyano-3-mercapto-N-(4-(1-(4-(trifluoromethoxy)phenyl)-1H-1,2,4-triazol-3-yl)phenyl)acrylamide] | 0% | 0 to 50% | 
Cc1ccccc1N/C(S)=C(\C#N)C(=O)Nc1ccc(-c2ncn(-c3ccc(OC(F)(F)F)cc3)n2)cc1 [Molecule A29, (Z)-2-Cyano-3-mercapto-3-(o-tolylamino)-N-(4-(1-(4-(trifluoromethoxy)phenyl)-1H-1,2,4-triazol-3-yl)phenyl)acrylamide] | 0 to 50% | 50 to 100% | 
N#C/C(C(=O)Nc1ccc(-c2ncn(-c3ccc(OC(F)(F)F)cc3)n2)cc1)=C(/S)Nc1c(F)cccc1F [Molecule A30, (Z)-2-Cyano-3-((2,6-difluorophenyl)amino)-3-mercapto-N-(4-(1-(4-(trifluoromethoxy)phenyl)-1H-1,2,4-triazol-3-yl)phenyl)acrylamide] | 0% | 0% | 
CC(C)c1ccccc1N1C(=O)CS/C1=C(/C#N)C(=O)Nc1ccc(-c2ncn(-c3ccc(OC(F)(F)F)cc3)n2)cc1 [Molecule A31, (Z)-2-Cyano-2-(3-(2-isopropylphenyl)-4-oxothiazolidin-2-ylidene)-N-(4-(1-(4-(trifluoromethoxy)phenyl)-1H-1,2,4-triazol-3-yl)phenyl)acetamide] | 50 to 100% | 50 to 100% | 
Cc1cc(C)c(N2C(=O)CS/C2=N\C(=O)Nc2ccc(-c3ncn(-c4ccc(OC(F)(F)F)cc4)n3)cc2)c(C)c1 [Molecule A36] | 50 to 100% | 50 to 100% | 
Cc1cc(C)c(N2C(=O)C(C)S/C2=N\C(=O)Nc2ccc(-c3ncn(-c4ccc(OC(F)(F)F)cc4)n3)cc2)c(C)c1 (stereo not shown) [Molecule A37] | 50 to 100% | 50 to 100% | 
CCC1CS/C(=N\C(=O)Nc2ccc(-c3ncn(-c4ccc(OC(F)(F)F)cc4)n3)cc2)N1c1c(C)cc(C)cc1C (stereo not shown) [Molecule A38] | 50 to 100% | 50 to 100% | 
Cc1cccc(C)c1N1CC(C)CS/C1=N\C(=O)Nc1ccc(-c2ncn(-c3ccc(OC(F)(F)F)cc3)n2)cc1 (stereo not shown) [Molecule A39] | 50 to 100% | 50 to 100% | 
Cc1cc(C)c(N2/C(=N/C(=O)Nc3ccc(-c4ncn(-c5ccc(OC(F)(F)F)cc5)n4)cc3)SCC2C)c(C)c1 (stereo not shown) [Molecule A40] |  |  | mortality at 12.5 µg/cm2 ([1]; 12.5 μg/cm2 on artificial diet, second instar larvae, five to seven days, read-out: Rating BAW (% Control (or Mortality)), **Tested at 12.5 μg/cm2): 50 to 100%; mortality at 12.5 µg/cm2 ([2]; 12.5 μg/cm2 on artificial diet, second instar larvae, five to seven days, read-out: Rating CEW (% Control (or Mortality)), **Tested at 12.5 μg/cm2): 50 to 100%
Cc1cc(C)c(N2CC(C)CS/C2=N\C(=O)Nc2ccc(-c3ncn(-c4ccc(OC(F)(F)F)cc4)n3)cc2)c(C)c1 (stereo not shown) [Molecule A41] | 50 to 100% | 50 to 100% | 
Cc1cccc(C)c1-n1c(C)cs/c1=N\C(=O)Nc1ccc(-c2ncn(-c3ccc(OC(F)(F)F)cc3)n2)cc1 [Molecule A42] | 0 to 50% | 0% | 
Cc1cc(C)c(-n2c(C)cs/c2=N\C(=O)Nc2ccc(-c3ncn(-c4ccc(OC(F)(F)F)cc4)n3)cc2)c(C)c1 [Molecule A43, (Z)-1-(3-mesityl-4-methylthiazol-2(3H)-ylidene)-3-(4-(1-(4-(trifluoromethoxy)phenyl)-1H-1,2,4-triazol-3-yl)phenyl)urea] | 0% | 50 to 100% | 
O=C(/N=C1\SCC(=O)N1c1ccccc1C1CC1)Nc1ccc(-c2ncn(-c3ccc(OC(F)(F)F)cc3)n2)cc1 [Molecule A66] | 50 to 100% |  | 
Cc1cccc(N/C(S)=N/C(=O)Nc2ccc(-c3ncn(-c4ccc(OC(F)(F)F)cc4)n3)cc2)c1C [Molecule A71] | 50 to 100% |  | 
O=C(/N=C(\S)Nc1ccc(Cl)cc1Cl)Nc1ccc(-c2ncn(-c3ccc(OC(F)(F)F)cc3)n2)cc1 [Molecule A78] | 0% |  | 
Cc1ccc(C(C)C)c(N/C(S)=N/C(=O)Nc2ccc(-c3ncn(-c4ccc(OC(F)(F)F)cc4)n3)cc2)c1 [Molecule A83] | 50 to 100% |  | 
CC(C)(C)c1ccccc1N1C(=O)CS/C1=N\C(=O)Nc1ccc(-c2ncn(-c3ccc(OC(F)(F)F)cc3)n2)cc1 [Molecule A95] |  |  | mortality at 0.5 µg/cm2 [2, 4]: 50 to 100%
COc1ccc(Cl)cc1N/C(S)=N/C(=O)Nc1ccc(-c2ncn(-c3ccc(OC(F)(F)F)cc3)n2)cc1 [Molecule A99] | 0% |  | 
CC(C)c1ccccc1N1C(=O)CS/C1=N\C(=O)Nc1ccc(-c2nnc(-c3ccc(OC(F)(F)C(F)(F)F)cc3)o2)cc1 [Molecule A102, (Z)-1-(3-(2-isopropylphenyl)-4-oxothiazolidin-2-ylidene)-3-(4-(5-(4-(perfluoroethoxy)phenyl)-1,3,4-oxadiazol-2-yl)phenyl)urea] |  |  | mortality at 0.5 µg/cm2 [2, 4]: 50 to 100%
CC(C)c1ccccc1N/C(S)=N/C(=O)Nc1ccc(-c2ncn(-c3ccc(OC(F)(F)C(F)(F)F)cc3)n2)cc1 [Molecule A112] | 50 to 100% |  | 
